Test results: the supplement of paper PMC11208160

Experiment: recombinant barcode read abundance after kanamycin selection (control-corrected) (log10(CPM+1)); higher = more efficient recombination; sequences stand for … in AGTGCAGAGAAAATCGGCCAGTTTTCTCTGCCTGCAGTCCGCATGCCGT…AGATTTATGCAGCGGACTGCCTTTCTCCCAAAGTGATAAACCGGACAGTATCATGGACCGGTTTTCCCGGTAATCCGTATTTGCAAGGTTGGTTTCACT; site = the 11-nt target
Outline: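 For this pooled screen, each oligo contained a promoter, a target, a barcode and the J23119-driven first 104 bases of the bridge RNA. Gibson cloning placed it into a vector supplying the remaining 73 bp and a T7-inducible recombinase, and the pool was co-electroporated into E. coli with a donor plasmid. Recombination efficiency is derived from barcode counts per million at recombinant junctions after averaging and control correction, and is expressed on a log scale as log10(CPM+1), with selection on chloramphenicol/ampicillin/kanamycin plus 0.1 mM IPTG against a chloramphenicol/ampicillin LB agar control.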
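Note: IS621 recombinase and bridge RNA in Escherichia coli cells.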

First: GGAGGTCCTTGGGTTCTAACCTGTTGCCG (site ACTCAGACTGT)
Second: GGAGGTCCTTGGGTTCTAACCTGTTGCCG (site GGAGGTCCTCG)
The “recombinant barcode read abundance (log10)” value of the first is lower: 0.161 for the first, 1.79 for the second.

Going from “GGAGTCCCTTGGGTTCTAACCTGTTGCGA (site GGAGTCCCTTC)” to “GGAGTCCCTTGGGTTCTAACCTGTTGCGA (site GGATTCCCTTG)”, the “recombinant barcode read abundance (log10)” value falls from 2.39 to 0.0458.

Going from “GGATACACTTGGGTTCTAACCTGTTGCCA (site GGATACACTTG)” to “GGATACACTTGGGTTCTAACCTGTTGCCA (site GGATCCACTTG)”, the “recombinant barcode read abundance (log10)” value falls from 1.35 to 0.041.

Going from “GGATACACTTGGGTTCTAACCTGTTGCCA (site GGATGCACTTG)” to “GGATACACTTGGGTTCTAACCTGTTGCCA (site GGATTCACTTG)”, the “recombinant barcode read abundance (log10)” value rises from 0.0123 to 0.274.

Going from “GGATGGACTTGGGTTCTAACCTGTTGCTT (site GGATAGCCTAA)” to “GGATGGACTTGGGTTCTAACCTGTTGCTT (site GGATGGACTAA)”, the “recombinant barcode read abundance (log10)” value rises from 0.0315 to 1.96.

First: GGCAAACCTTGGGTTCTAACCTGTTGCGG (site CATGGGACTAT)
Second: GGCAAACCTTGGGTTCTAACCTGTTGCGG (site GGCAAACCTCC)
The “recombinant barcode read abundance (log10)” value of the first is lower: 0.0629 for the first, 2.09 for the second.

“GGCAACTCTTGGGTTCTAACCTGTTGCCT (site AAGTTAGCTCC)” and “GGCAACTCTTGGGTTCTAACCTGTTGCCT (site GGCAACTCTAG)” are within 0.2 log units of each other in “recombinant barcode read abundance (log10)” value: 0 for the first, 0.0853 for the second.

First: GGCACCGCTTGGGTTCTAACCTGTTGCCT (site GGCACAGCTAG)
Second: GGCACCGCTTGGGTTCTAACCTGTTGCCT (site GGCACCGCTAG)
The “recombinant barcode read abundance (log10)” value of the first is lower: 0.0859 for the first, 0.905 for the second.

“GGCACCGCTTGGGTTCTAACCTGTTGCCT (site GGCACGGCTAG)” and “GGCACCGCTTGGGTTCTAACCTGTTGCCT (site GGCACTGCTAG)” are within 0.2 log units of each other in “recombinant barcode read abundance (log10)” value: 0.164 for the first, 0.0527 for the second.

Going from “GGCAGACCTTGGGTTCTAACCTGTTGCCT (site GGCAGACCTAG)” to “GGCAGACCTTGGGTTCTAACCTGTTGCCT (site GGCAGTCCTCG)”, the “recombinant barcode read abundance (log10)” value falls from 1 to 0.373.

“GGCATATCTTGGGTTCTAACCTGTTGCCT (site AGTATATCTAG)” and “GGCATATCTTGGGTTCTAACCTGTTGCCT (site GGCATATCTAG)” are within 0.2 log units of each other in “recombinant barcode read abundance (log10)” value: 0.0602 for the first, 0.048 for the second.

“GGCATCCCTTGGGTTCTAACCTGTTGCCT (site GGCATCCCTAG)” and “GGCATCCCTTGGGTTCTAACCTGTTGCCT (site GGCCTCCCTAG)” are within 0.2 log units of each other in “recombinant barcode read abundance (log10)” value: 0.337 for the first, 0.258 for the second.

“GGCATCCCTTGGGTTCTAACCTGTTGCCT (site GGCGTCCCTAG)” and “GGCATCCCTTGGGTTCTAACCTGTTGCCT (site GGCTTCCCTAG)” are within 0.2 log units of each other in “recombinant barcode read abundance (log10)” value: 0.184 for the first, 0.145 for the second.

First: GGCCGGACTTGGGTTCTAACCTGTTGCCT (site GGCCGGACTAG)
Second: GGCCGGACTTGGGTTCTAACCTGTTGCCT (site GGCCGGCCTAG)
The “recombinant barcode read abundance (log10)” value of the first is higher: 0.937 for the first, 0.253 for the second.

“GGCCGGACTTGGGTTCTAACCTGTTGCCT (site GGCCGGGCTAG)” and “GGCCGGACTTGGGTTCTAACCTGTTGCCT (site GGCCGGTCTAG)” are within 0.2 log units of each other in “recombinant barcode read abundance (log10)” value: 0.112 for the first, 0.021 for the second.

“GGCCGGGCTTGGGTTCTAACCTGTTGCCT (site GGCCGGACTAG)” and “GGCCGGGCTTGGGTTCTAACCTGTTGCCT (site GGCCGGCCTAG)” are within 0.2 log units of each other in “recombinant barcode read abundance (log10)” value: 0.143 for the first, 0.0912 for the second.

“GGCCGGGCTTGGGTTCTAACCTGTTGCCT (site GGCCGGGCTAG)” and “GGCCGGGCTTGGGTTCTAACCTGTTGCCT (site GGCCGGTCTAG)” are within 0.2 log units of each other in “recombinant barcode read abundance (log10)” value: 0.219 for the first, 0.0839 for the second.

“GGCCGTCCTTGGGTTCTAACCTGTTGCAG (site ACCCGTCCTCT)” and “GGCCGTCCTTGGGTTCTAACCTGTTGCAG (site GGCCGTCCTCT)” are within 0.2 log units of each other in “recombinant barcode read abundance (log10)” value: 0.184 for the first, 0.118 for the second.

First: GGCGCCTCTTGGGTTCTAACCTGTTGCGC (site AATCTAACTAG)
Second: GGCGCCTCTTGGGTTCTAACCTGTTGCGC (site GGCGCCTCTGC)
The “recombinant barcode read abundance (log10)” value of the first is lower: 0.139 for the first, 0.777 for the second.

“GGCGCGTCTTGGGTTCTAACCTGTTGCCT (site GGCGCATCTAG)” and “GGCGCGTCTTGGGTTCTAACCTGTTGCCT (site GGCGCGTCTAG)” are within 0.2 log units of each other in “recombinant barcode read abundance (log10)” value: 0.607 for the first, 0.557 for the second.

First: GGCGTCACTTGGGTTCTAACCTGTTGCCT (site GGCGACCCTAG)
Second: GGCGTCACTTGGGTTCTAACCTGTTGCCT (site GGCGTCACTAG)
The “recombinant barcode read abundance (log10)” value of the first is lower: 0.111 for the first, 1.24 for the second.

Compared with “GGCTAACCTTGGGTTCTAACCTGTTGCCT (site CATCGGACTTT)”, “GGCTAACCTTGGGTTCTAACCTGTTGCCT (site GGCTAACCTAG)” is higher in “recombinant barcode read abundance (log10)” value: 0.0416 for the first, 1.33 for the second.

Going from “GGCTACCCTTGGGTTCTAACCTGTTGCAA (site CTGGTATCTAA)” to “GGCTACCCTTGGGTTCTAACCTGTTGCAA (site GGCTACCCTTT)”, the “recombinant barcode read abundance (log10)” value rises from 0.148 to 0.774.

First: GGCTAGACTTGGGTTCTAACCTGTTGCGG (site GGCTAGACTCC)
Second: GGCTAGACTTGGGTTCTAACCTGTTGCGG (site GGCTCTACTCC)
The “recombinant barcode read abundance (log10)” value of the first is higher: 1.43 for the first, 0.0457 for the second.

Going from “GGCTTCTCTTGGGTTCTAACCTGTTGCCT (site GGCTTCTCTAG)” to “GGCTTCTCTTGGGTTCTAACCTGTTGCCT (site TGCCTCTCTAG)”, the “recombinant barcode read abundance (log10)” value falls from 1.22 to 0.0687.

“GGGAACCCTTGGGTTCTAACCTGTTGCTA (site GGGAACCCTAA)” and “GGGAACCCTTGGGTTCTAACCTGTTGCTA (site GGGAACCCTCA)” are within 0.2 log units of each other in “recombinant barcode read abundance (log10)” value: 0.147 for the first, 0.132 for the second.

Compared with “GGGAACCCTTGGGTTCTAACCTGTTGCTA (site GGGAACCCTGA)”, “GGGAACCCTTGGGTTCTAACCTGTTGCTA (site GGGAACCCTTA)” is higher in “recombinant barcode read abundance (log10)” value: 0.0297 for the first, 1.29 for the second.

First: GGGACCTCTTGGGTTCTAACCTGTTGCGG (site GGGACCTCTAC)
Second: GGGACCTCTTGGGTTCTAACCTGTTGCGG (site GGGACCTCTCC)
The “recombinant barcode read abundance (log10)” value of the first is lower: 1.25 for the first, 1.94 for the second.

Compared with “GGGATGTCTTGGGTTCTAACCTGTTGCCT (site GAGATGTCTAG)”, “GGGATGTCTTGGGTTCTAACCTGTTGCCT (site GCGATGTCTAG)” is lower in “recombinant barcode read abundance (log10)” value: 0.444 for the first, 0.128 for the second.

Going from “GGGATGTCTTGGGTTCTAACCTGTTGCCT (site GGGATGTCTAG)” to “GGGATGTCTTGGGTTCTAACCTGTTGCCT (site GTGATGTCTAG)”, the “recombinant barcode read abundance (log10)” value falls from 2.04 to 0.211.

Going from “GGGCAGCCTTGGGTTCTAACCTGTTGCCT (site GGGCAACCTAC)” to “GGGCAGCCTTGGGTTCTAACCTGTTGCCT (site GGGCAGCCTAG)”, the “recombinant barcode read abundance (log10)” value rises from 0.0939 to 0.458.

“GGGCATCCTTGGGTTCTAACCTGTTGCTT (site GGGCATCCTAA)” and “GGGCATCCTTGGGTTCTAACCTGTTGCTT (site GTGCACCCTAA)” are within 0.2 log units of each other in “recombinant barcode read abundance (log10)” value: 0.652 for the first, 0.637 for the second.

Going from “GGGCCGGCTTGGGTTCTAACCTGTTGCCG (site AATGATTCTAC)” to “GGGCCGGCTTGGGTTCTAACCTGTTGCCG (site GGGCCGGCTCG)”, the “recombinant barcode read abundance (log10)” value rises from 0.292 to 1.14.

Going from “GGGCCTGCTTGGGTTCTAACCTGTTGCCA (site CTCGACCCTAT)” to “GGGCCTGCTTGGGTTCTAACCTGTTGCCA (site GGGCCTGCTTG)”, the “recombinant barcode read abundance (log10)” value rises from 0 to 1.18.

Compared with “GGGCTGTCTTGGGTTCTAACCTGTTGCTT (site GGGCTGTCTAA)”, “GGGCTGTCTTGGGTTCTAACCTGTTGCTT (site GGGGTGTCTCA)” is lower in “recombinant barcode read abundance (log10)” value: 0.705 for the first, 0.37 for the second.

Going from “GGGGAGCCTTGGGTTCTAACCTGTTGCTG (site GGGGAGCCTCA)” to “GGGGAGCCTTGGGTTCTAACCTGTTGCTG (site GGGGAGTCTAA)”, the “recombinant barcode read abundance (log10)” value falls from 2.9 to 0.358.

Going from “GGGGATCCTTGGGTTCTAACCTGTTGCCT (site GAGGATCCTAG)” to “GGGGATCCTTGGGTTCTAACCTGTTGCCT (site GGGGATCCTAG)”, the “recombinant barcode read abundance (log10)” value rises from 0.679 to 2.45.

Going from “GGGGCACCTTGGGTTCTAACCTGTTGCAT (site GGGGCACCTAA)” to “GGGGCACCTTGGGTTCTAACCTGTTGCAT (site GGGGCACCTAC)”, the “recombinant barcode read abundance (log10)” value falls from 1.56 to 0.357.

For “GGGGCACCTTGGGTTCTAACCTGTTGCAT (site GGGGCACCTAG)”, the “recombinant barcode read abundance (log10)” value was 0.598.
